The source of these data is US20100197657A1, “2-ARYL OR HETEROARYL INDOLE DERIVATIVES” (priority 2007, published 2010).

One assay addresses T1, human ASIC3 (Homo sapiens, UniProt Q9UHC3).
T1 construct: expressed in transfected cells; host or cells: HEK293
T1 sequence (Q9UHC3 1-531): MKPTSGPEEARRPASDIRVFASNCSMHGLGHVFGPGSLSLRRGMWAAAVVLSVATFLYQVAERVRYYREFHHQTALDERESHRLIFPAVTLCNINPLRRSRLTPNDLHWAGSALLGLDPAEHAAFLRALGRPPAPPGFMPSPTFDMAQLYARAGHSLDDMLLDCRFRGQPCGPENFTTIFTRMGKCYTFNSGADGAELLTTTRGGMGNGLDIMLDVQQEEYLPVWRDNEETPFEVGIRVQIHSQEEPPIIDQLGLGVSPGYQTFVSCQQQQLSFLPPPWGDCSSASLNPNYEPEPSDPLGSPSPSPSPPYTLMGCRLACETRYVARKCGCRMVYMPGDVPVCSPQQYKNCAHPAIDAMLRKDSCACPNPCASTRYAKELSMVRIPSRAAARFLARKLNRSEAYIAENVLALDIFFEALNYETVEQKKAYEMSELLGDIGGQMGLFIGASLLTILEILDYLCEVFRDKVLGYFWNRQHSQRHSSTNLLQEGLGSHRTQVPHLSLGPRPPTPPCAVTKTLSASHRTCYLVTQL
Put plainly: In vitro assay for ASIC activity, whole-cell patch clamp, hASIC3 cell line. The class given is cell-based. Conditions: for block of inward current evoked by pH5.5 in the hASIC3 cell line: pre-application of 10 μM; for inhibition at 10 µM: percent inhibition vs. baseline current, read-out: levels of inhibition of acid-evoked ASIC current; for inhibition of human ASIC3 current with increasing concentrations (FIG. 1): increasing concentrations of compound; for inhibition of inward current evoked by pH5.5 in the hASIC3 cell line: pre-application of 300 nM. How it is done:
(§1) Cell Preparation: Human embryonic kidney cells (HEK293) stably expressing the human ASIC ion channel, are grown to 70-90% confluence in T75 cell culture flasks. Cells are lifted by removing the growth media and incubating with 3 ml of warmed (37° C.) 50/50 Trypsin/Dulbecco's Solution (GIBCO, USA) for 4-6 minutes. 7 ml of pH7.4_HBS (see Solutions and Drugs) is then added to block Trypsin activity. The cell suspension is placed into a 10 ml centrifuge tube and centrifuged for 1 minute @ 150×G. After centrifugation, the supernatant is aspirated and the cell pellet is re-suspended in 2-5 ml of pH7.4_HBS for a final cell density of ˜0.6×10^6 cells/ml. For whole-cell patch clamp, approximately 1000 cells are placed in a recording chamber containing standard bath solution for electrophysiological recording.
Solutions and Drugs: The intracellular solution contains (mM): 119 K-gluconate, 15 KCl, 3.2 MgCl2, 5 EGTA, 5 HEPES, 5 K2ATP, pH 7.3. The standard bath solution (pH7.4_HBS) contains (mM): 150 NaCl, 5 KCl, 2 CaCl2, 1 MgCl2, 10 HEPES, 12 Dextrose, pH 7.4. The acid-activation bath solution (pH5.5_MBS) contains (mM): 150 NaCl, 5 KCl, 2 CaCl2, 1 MgCl2, 10 MES, 12 Dextrose, pH 5.5. Test compounds were prepared as 2 or 10 mM stock solutions in DMSO and diluted in either pH7.4_HBS or pH5.5_MBS to final concentration.
Electrophysiological recording: Patch clamp recording pipettes were pulled from borosilicate glass and typically had 2-4 MOhm resistances. Whole cell currents were recorded with a patch clamp amplifier (Multiclamp 700B, Axon Instruments Inc). Holding and test potential was −60 mV. Control and compound solutions perfused the vicinity of the cell with flow controlled by computer-operated solenoid valves. 10-90% solution exchange typically took <20 ms. After establishment of whole cell configuration, cells were perfused with pH7.4_HBS. Baseline ASIC current was determined by application of pH5.5_MBS at two minute intervals. After a stable ASIC current was determined, inhibition of acid evoked current was determined by multiple applications of increasing concentrations (3-fold dilution) of compound. Inhibition of current was expressed as percent inhibition vs. baseline current. A minimum of three independent determinations at each concentration of compound was used for each data point. IC50s were determined using the Hill Equation.
(In general: The patch-clamp technique gives a direct electrical read-out from membranes.)

For another assay, the system named is ASIC. The conditions noted are these: cited from earlier work; for inhibition of ASIC current: Psalmotoxin-1 selective for ASIC1, APETx2 selective for ASIC3.
The target in a further assay is T2, human ASIC1 (Homo sapiens, UniProt P78348).
T2 construct: expressed in transfected cells; host or cells: HEK293
T2 sequence (P78348 1-528): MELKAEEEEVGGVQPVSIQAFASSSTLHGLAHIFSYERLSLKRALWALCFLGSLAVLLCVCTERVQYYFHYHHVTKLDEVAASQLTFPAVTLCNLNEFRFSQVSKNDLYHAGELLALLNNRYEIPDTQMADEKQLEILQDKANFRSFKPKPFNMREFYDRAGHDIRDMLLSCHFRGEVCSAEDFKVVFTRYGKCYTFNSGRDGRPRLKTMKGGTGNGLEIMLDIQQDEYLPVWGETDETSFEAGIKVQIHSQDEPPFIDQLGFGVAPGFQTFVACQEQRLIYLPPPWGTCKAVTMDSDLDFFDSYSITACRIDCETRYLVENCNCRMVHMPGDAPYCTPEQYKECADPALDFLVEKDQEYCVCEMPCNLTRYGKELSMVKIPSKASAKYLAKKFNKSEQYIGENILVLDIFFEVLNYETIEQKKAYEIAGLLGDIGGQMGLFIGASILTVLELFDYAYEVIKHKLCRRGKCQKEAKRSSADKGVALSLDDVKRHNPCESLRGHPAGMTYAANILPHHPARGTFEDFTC
Put plainly: In vitro assay for ASIC activity, whole-cell patch clamp, hASIC1 cell line. The format is cell-based. How it is done:
as §1, with “recording. […]” for “recording.”
Electrophysiological recording: Patch clamp recording pipettes were pulled from borosilicate glass and typically had 2-4 MOhm resistances. Whole cell currents were recorded with a patch clamp amplifier (Multiclamp 700B, Axon Instruments Inc). […] After a stable ASIC current was determined, inhibition of acid evoked current was determined by multiple applications of increasing concentrations (3-fold dilution) of compound. Inhibition of current was expressed as percent inhibition vs. baseline current. […] IC50s were determined using the Hill Equation.

Regarding `N=C(N)c1ccc2[nH]c(-c3cc(Cl)cc(Br)c3)cc2c1` [EXAMPLE 3], the “block of inward current evoked by pH5.5 in the hASIC3 cell line” value on human ASIC3 is on record as “blocked the proton-evoked current”.
Usually inhibition stands for how much of the control response was suppressed. Take `NCc1ccc2[nH]c(-c3cc(Cl)nc(Cl)c3)cc2c1` [compound 50, 1-[2-(2,6-Dichloropyridin-4-yl)-1H-indol-5-yl]methanamine]: at human ASIC3, the inhibition at 10 µM is above 20%.
`CC(C)C1c2cc(C3CC3c3ccc4cc(C(=N)N)ccc4c3)ccc2CCN1C` (stereo not shown) [A-317567]: the “increase in potency vs. amiloride” value in the assay with ASIC (in vivo and in vitro assays) was above 10 fold.
Turning to `NCc1ccc2[nH]c(-c3ccccc3)c(CN)c2c1` [compound 28, (2-Phenyl-1H-indole-3,5-diyl)dimethanamine], the inhibition at 10 µM on human ASIC3 was above 20%.
For the compound “Psalmotoxin-1 (EDCIPKWKGCVNRHGDCCEGLECWKRRRSFEVCVPKTPKT; Pi-theraphotoxin-Pc1a; UniProt P60514 1-40, looked up)”, the “inhibition of ASIC current” value in the assay on ASIC is “inhibit ASIC current at nM concentrations”.
Take `N=C(N)c1ccc2[nH]c(-c3cc(Br)cc(Br)c3)cc2c1` [EXAMPLE 4]: on human ASIC3, the “inhibition of human ASIC3 current with increasing concentrations (FIG. 1)” value is given as “dose dependent inhibition” and the “inhibition of inward current evoked by pH5.5 in the hASIC3 cell line” value is recorded as “inhibited the proton-evoked current”.
As for `N=C(N)c1ccc2[nH]c(-c3cccc(CO)c3)cc2c1` [EXAMPLE 2], the “block of inward current evoked by pH5.5 in the hASIC3 cell line” value at human ASIC3 is listed as “did not block the proton-evoked current”.
Turning to APETx2, in the assay with ASIC, the “inhibition of ASIC current” value is on record as “inhibit ASIC current at nM concentrations”.
As for `N=C(N)c1ccc2[nH]c(-c3cc(Cl)cc(Cl)c3)cc2c1` [EXAMPLE 1, 2-(3,5-Dichlorophenyl)-1H-indole-5-carboximidamide], the “inhibition of proton-evoked current in HEK cells expressing human ASIC3 (FIG. 2)” value at human ASIC3 (HEK cells, human ASIC3) is listed as “inhibits proton-evoked current”. Also, on human ASIC3, the inhibition at 10 µM was above 20%, the “inhibition of human ASIC3 current with increasing concentrations (FIG. 1)” value was “dose dependent inhibition” and the “inhibition of inward current evoked by pH5.5 in the hASIC3 cell line” value is reported as “inhibits the majority of the proton-evoked current”. Further, at human ASIC1 (HEK cells, human ASIC1), the “inhibition of proton-evoked current in HEK cells expressing human ASIC1 (FIG. 2)” value was “inhibits proton-evoked current”. Also, the “inhibition of inward current evoked by pH6.5 in the hASIC1 cell line” value against human ASIC1 (pre-application of 300 nM, pH6.5) is “inhibits a large fraction of this current”.
On to `N=C(Nc1ccccc1)c1ccc2[nH]c(-c3cc(Cl)cc(Cl)c3)cc2c1` [compound 21, 2-(3,5-dichlorophenyl)-N-phenyl-1H-indole-5-carboximidamide], for which, at human ASIC3, the inhibition at 10 µM was above 20%.
